Test results published in patent US20030134901A1, “Lipoxin compounds and their use in treating cell proliferative disorders” (priority 1993, published 2003).

Tested on: PMA-treated HL-60 cells
Assay: Lipoxin metabolism / bio-half-life assay with phorbol ester-treated HL-60 cells
Assay type: in vitro ADME, human
Method: HL-60 cells were purchased from American Type Culture Collection (Rockville, Md.), and other cell culture reagents were from GIBCO (Grand Island, N.Y.). Versene (EDTA) was from Whittaker Bioproducts (Walkersville, Md.). Synthetic 11,12-acetylenic LXA4 methyl ester and LXs were from Cascade Biochemical (Reading, U.K.). 15(S)-15-m-PGE1, PGE1, and 5-HETE were from Cayman Chemical Co. (Ann Arbor, Mich.). [11,12-^3H]LXA4 was prepared from 11,12-acetylenic LXA4 using Lindlar catalyst as a custom tritiation (NET-259, lot 0 2793-275, New England Nuclear, Boston, Mass.). Tritiated products were isolated using RP-HPLC (Fiore et al. (1992) J. Biol. Chem. 267:16168; Serhan, C. N. (1990) Meth. Enzymol. 187:167). Methoxyamine and NAD were from Sigma Chemical Company (St. Louis, Mo.). Manganese dioxide and Adams reagent were from Aldrich Chemical Co. (Milwaukee, Wis.).
Human PMN were obtained from healthy volunteers by gradient centrifugation of heparinized fresh venous blood (Böyum, A. ([…]) Scand. J. Clin. Lab. Invest. 21:77). HL-60 cells were seeded in RPMI supplemented with penicillin (100 U/ml), streptomycin (100 μ/ml), fetal bovine serum (10%) (Hyclone, Logan, Utah) and incubated (37° C. with 5% CO2 atmosphere) in plastic 250 ml flasks. Individual flasks containing […] HL-60 cells/ml were incubated in the presence or absence of phorbol 12-myristate 13-acetate (PMA) (10 or 16 nM, 24-27 h) and adherence was monitored for induction of macrophage-like phenotype as in Collins, S. J. (1987) Blood 70:1233. […]
Incubations with eicosanoids were stopped with cold methanol containing either PGB2 or 5-HETE as internal standards (5-HETE was used when 15-oxo-ETE was quantified). […] Formation of 15-oxo-ETE by 100,000 g supernatants (cf. Agins, A. P. et al. (1987) Agents Actions 21:397; Xun, C-Q. et al.(1991) Biochem. J. 279:553; and Sok, D-E. et al. (1988) Biochem. Biophys. Res. Commun. 156:524) was quantified after RP-HPLC using an ODS column (4.6 mm×25 cm) eluted with methanol/H2O/acetic acid (70:30:0.01, v/v/v) monitored at 280 nm with a flow rate of 1 ml/min. […] On-line spectra were recorded using a diode array detector (Hewlett-Packard 1040M series II) equipped with HPLC^3D ChemStation software (DOS series). […]
The “bio-half-life” of compounds 1-8 was assessed using phorbol ester-treated human promyelocytic leukemia (HL-60) cells as described in Example 2. […]

For `CCCCC[C@H](O)/C=C/C=C\C=C\C=C\[C@@H](O)[C@@H](O)CCCC(=O)O` [LXA4, (5S, 6R, 15S)-trihydroxy-7E, 9E, 11Z, 13E-eicosatetraenoic acid], the LXA4 metabolized (PMA-treated HL-60 cells, within the first 60 s of exposure) was greater than 70% and the “LXA4 converted” value (within five minutes of addition to the cell incubation) was “more than 95%”.
